Laboratory results reported in ChEMBL document CHEMBL4041540, “In silico selection and cell-based characterization of selective and bioactive compounds for androgen-dependent prostate cancer cell” (Bioorg Med Chem Lett, 2017).
Active and inactive are the calls of the source. No cut-off for these calls is given here.

Columns and labels:
[1] = test system: PC-3; test: Growth inhibition of human PC3 cells at 100 uM after 72 hrs by MTT assay relative to control; type: functional; details: PC-3, 72 h, read-out: GI
[2] = target: T1, Androgen receptor (Homo sapiens) (UniProt P10275); test: Inhibition of AR signaling pathway in testosterone-stimulated human LNCAP cells assessed as cell growth inhibition at 100 uM after 6 days by MTT assay relative to control
T1 sequence (whole entry): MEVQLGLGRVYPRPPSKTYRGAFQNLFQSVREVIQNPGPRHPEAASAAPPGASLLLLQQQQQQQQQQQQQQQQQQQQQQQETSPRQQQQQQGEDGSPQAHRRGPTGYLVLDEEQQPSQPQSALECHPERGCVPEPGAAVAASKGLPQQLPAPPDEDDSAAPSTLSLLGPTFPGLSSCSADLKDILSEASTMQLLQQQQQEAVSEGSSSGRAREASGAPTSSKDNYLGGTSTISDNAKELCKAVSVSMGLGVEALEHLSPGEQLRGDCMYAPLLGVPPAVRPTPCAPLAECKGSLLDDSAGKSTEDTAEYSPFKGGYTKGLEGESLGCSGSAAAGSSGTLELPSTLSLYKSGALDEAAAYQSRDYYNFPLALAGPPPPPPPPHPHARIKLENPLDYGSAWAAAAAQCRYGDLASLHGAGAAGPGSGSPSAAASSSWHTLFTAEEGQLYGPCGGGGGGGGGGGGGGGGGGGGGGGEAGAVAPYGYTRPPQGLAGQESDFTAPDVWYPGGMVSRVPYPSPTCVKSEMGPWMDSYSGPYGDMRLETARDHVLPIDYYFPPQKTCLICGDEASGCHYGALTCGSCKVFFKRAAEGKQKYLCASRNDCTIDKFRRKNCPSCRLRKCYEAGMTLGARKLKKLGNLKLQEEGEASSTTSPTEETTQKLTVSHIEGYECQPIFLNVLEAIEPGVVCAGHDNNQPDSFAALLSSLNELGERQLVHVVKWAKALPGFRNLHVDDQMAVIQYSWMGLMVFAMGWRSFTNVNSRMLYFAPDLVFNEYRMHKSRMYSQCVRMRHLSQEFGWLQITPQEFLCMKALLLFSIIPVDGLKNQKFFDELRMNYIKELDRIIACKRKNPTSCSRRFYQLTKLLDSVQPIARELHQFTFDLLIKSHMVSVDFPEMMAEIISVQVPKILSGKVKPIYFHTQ

[3] = test system: DU-145; test: Growth inhibition of human DU145 cells at 100 uM after 72 hrs by MTT assay relative to control; type: functional; details: DU-145, 72 h, read-out: GI
[4] = test system: LNCaP; test: Growth inhibition of human LNCAP cells at 100 uM after 72 hrs by MTT assay relative to control; type: functional; details: read-out: GI
[5] = Growth inhibition of Balb/c mouse 3T3 clone A31 cells after 72 hrs by MTT assay; type: cell-based; details: Balb/c 3T3 clone A31 cells
[6] = test system: LNCaP; test: Cell cycle arrest in testosterone-stimulated human LNCAP cells assessed as G1 phase accumulation at 8 uM after 5 days (reference value: 63.4%); type: functional
[7] = test system: LNCaP; test: Cell cycle arrest in testosterone-stimulated human LNCAP cells assessed as G2/M phase accumulation at 8 uM after 5 days (reference value: 13.3%); type: functional
[8] = target: T1, Androgen receptor (Homo sapiens)
Description: Inhibition of AR signaling pathway in testosterone-stimulated human LNCAP cells assessed as cell growth inhibition after 6 days by MTT assay

[9] = Selectivity index, ratio of GI50 for Balb/c mouse 3T3 clone A31 cells to GI50 for AR signaling pathway in testosterone-stimulated human LNCAP cells assessed as cell growth inhibition
[10] = test system: LNCaP; test: Cell cycle arrest in testosterone-stimulated human LNCAP cells assessed as G2/M phase accumulation at 8 uM after 3 days (reference value: 8.2%); type: functional
[11] = test system: LNCaP; test: Cell cycle arrest in testosterone-stimulated human LNCAP cells assessed as G1 phase accumulation at 8 uM after 3 days (reference value: 73.8%); type: functional
[12] = test system: LNCaP; test: Cell cycle arrest in testosterone-stimulated human LNCAP cells assessed as G0 phase accumulation at 8 uM after 3 days (reference value: 3.9%); type: functional
[13] = Growth inhibition of Balb/c mouse 3T3 clone A31 cells at 250 uM after 72 hrs by MTT assay relative to control; type: cell-based; details: Balb/c 3T3 clone A31 cells, read-out: GI
[14] = test system: LNCaP; test: Cell cycle arrest in testosterone-stimulated human LNCAP cells assessed as S phase accumulation at 8 uM after 3 days (reference value: 14.1%); type: functional
[15] = test system: LNCaP; test: Cell cycle arrest in testosterone-stimulated human LNCAP cells assessed as G0 phase accumulation at 8 uM after 5 days (reference value: 8.2%); type: functional
[16] = test system: LNCaP; test: Cell cycle arrest in testosterone-stimulated human LNCAP cells assessed as S phase accumulation at 8 uM after 5 days (reference value: 15.1%); type: functional
[17] = target: T1, Androgen receptor (Homo sapiens); remark: listed apart in the source
Description: Inhibition of AR signaling pathway in testosterone-stimulated human LNCAP cells assessed as cell growth inhibition by flow cytometry

## N#Cc1ccc(NC(=O)CSc2nc3ccc([N+](=O)[O-])cc3s2)cc1
[1]
  inhibition of growth at 100 µM: ≤ 50%
[2]
  inhibition: inactive
[3]
  inhibition of growth at 100 µM: ≤ 50%
[4]
  inhibition of growth at 100 µM: ≤ 50%

## N#Cc1cc(F)c(N2CCN(C(=O)c3ccsc3)CC2)c(F)c1
[1]
  inhibition of growth at 100 µM: ≤ 50%
[2]
  inhibition: inactive
[3]
  inhibition of growth at 100 µM: ≤ 50%
[4]
  inhibition of growth at 100 µM: ≤ 50%

## CC(OC(=O)Cc1cc2c(s1)CCC2)C(=O)Nc1ccc(C#N)cc1 (stereo unspecified)
[1]
  inhibition of growth at 100 µM: ≤ 50%
[2]
  inhibition: inactive
[3]
  inhibition of growth at 100 µM: ≤ 50%
[4]
  inhibition of growth at 100 µM: ≤ 50%

## CC(C(=O)Nc1ccc(C#N)cc1)N1CCN(c2ccc(O)cc2)CC1 (stereo unspecified)
[1]
  inhibition of growth at 100 µM: ≤ 50%
[2]
  inhibition: inactive
[3]
  inhibition of growth at 100 µM: ≤ 50%
[4]
  inhibition of growth at 100 µM: ≤ 50%

## N#Cc1ccc(CN2CCN(C(=O)C3CCCC3)CC2)c(F)c1
[1]
  inhibition of growth at 100 µM: ≤ 50%
[2]
  inhibition: inactive
[3]
  inhibition of growth at 100 µM: ≤ 50%
[4]
  inhibition of growth at 100 µM: ≤ 50%

## O=C(CSc1ncnc2c1[nH]c1ccccc12)Nc1ccc(F)cc1
[1]
  inhibition of growth at 100 µM: ≤ 50%
[2]
  inhibition: inactive
[3]
  inhibition of growth at 100 µM: ≤ 50%
[4]
  inhibition of growth at 100 µM: ≤ 50%

## N#Cc1ccc(NC(=O)COC(=O)Cc2cccs2)cc1Cl
[1]
  inhibition of growth at 100 µM: ≤ 50%
[2]
  inhibition: Active
[3]
  inhibition of growth at 100 µM: ≤ 50%
[4]
  inhibition of growth at 100 µM: ≤ 50%

## O=C(CSc1ncnc2c1[nH]c1ccccc12)Nc1cccc(F)c1
[1]
  inhibition of growth at 100 µM: ≤ 50%
[2]
  inhibition: inactive
[3]
  inhibition of growth at 100 µM: ≤ 50%
[4]
  inhibition of growth at 100 µM: ≤ 50%

## N#Cc1ccc(NC(=O)COC(=O)Cc2ccc(Cl)c(Cl)c2)cc1
[1]
  inhibition of growth at 100 µM: ≤ 50%
[2]
  inhibition: inactive
[3]
  inhibition of growth at 100 µM: ≤ 50%
[4]
  inhibition of growth at 100 µM: ≤ 50%

## N#Cc1ccc(N2CCN(C(=O)c3ccc(=O)[nH]c3)CC2)c(F)c1
[1]
  inhibition of growth at 100 µM: ≤ 50%
[2]
  inhibition: inactive
[3]
  inhibition of growth at 100 µM: ≤ 50%
[4]
  inhibition of growth at 100 µM: ≤ 50%

## N#Cc1ccc(CN2CCN(C(=O)Cn3ccc(=O)[nH]c3=O)CC2)cc1
[1]
  inhibition of growth at 100 µM: ≤ 50%
[2]
  inhibition: inactive
[3]
  inhibition of growth at 100 µM: ≤ 50%
[4]
  inhibition of growth at 100 µM: ≤ 50%

## CC1CCCN(C(=O)C2CCN(c3ccc(C#N)cc3F)CC2)C1 (stereo unspecified)
[1]
  inhibition of growth at 100 µM: ≤ 50%
[2]
  inhibition: inactive
[3]
  inhibition of growth at 100 µM: ≤ 50%
[4]
  inhibition of growth at 100 µM: ≤ 50%

## CNC(=O)c1ccc(N2C(=S)N(c3ccc(C#N)c(C(F)(F)F)c3)C(=O)C2(C)C)cc1F [ENZALUTAMIDE]
[5]
  GI50 at 72 h: 27.5 µM

## Cc1ccc2[nH]c3c(SCC(=O)Nc4cccc(C#N)c4)ncnc3c2c1
[6]
  Activity: 68.7%
[1]
  inhibition of growth at 100 µM: ≤ 50%
[7]
  Activity: 9.3%
[8]
  GI50: 22.4 µM
[9]
  RatioGI50: >11
[10]
  Activity: 15.1%
[11]
  Activity: 64.6%
[12]
  Activity: 1.9%
[13]
  inhibition at 72 h, 250 µM: 20%
[14]
  Activity: 18.4%
[2]
  inhibition: Active
[3]
  inhibition of growth at 100 µM: ≤ 50%
[15]
  Activity: 6.3%
[16]
  Activity: 15.7%
[17]
  GI50: 22.6 µM
[4]
  inhibition of growth at 100 µM: ≤ 50%

## N#Cc1ccc(C(=O)N2CCN(c3ccc(F)cc3)CC2)c(F)c1
[1]
  inhibition of growth at 100 µM: ≤ 50%
[2]
  inhibition: inactive
[3]
  inhibition of growth at 100 µM: ≤ 50%
[4]
  inhibition of growth at 100 µM: ≤ 50%

## Cc1cc(NC(=O)N2CCN(c3ccc(C#N)cc3F)CC2)on1
[1]
  inhibition of growth at 100 µM: ≤ 50%
[2]
  inhibition: inactive
[3]
  inhibition of growth at 100 µM: ≤ 50%
[4]
  inhibition of growth at 100 µM: ≤ 50%

## N#Cc1ccc(NC(=O)COC(=O)Cc2ccc(F)cc2)cc1Cl
[1]
  inhibition of growth at 100 µM: ≤ 50%
[2]
  inhibition: inactive
[3]
  inhibition of growth at 100 µM: ≤ 50%
[4]
  inhibition of growth at 100 µM: ≤ 50%

## N#Cc1ccc(CN2CCN(C(=O)c3ccc(F)c(F)c3)CC2)cc1
[1]
  inhibition of growth at 100 µM: ≤ 50%
[2]
  inhibition: inactive
[3]
  inhibition of growth at 100 µM: ≤ 50%
[4]
  inhibition of growth at 100 µM: ≤ 50%
